From ChEMBL document CHEMBL1201862, “PubChem BioAssay data set” (2004)
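Dose response: 5 concentrations. Exposure: 48 h. Format: 96-well plates. Endpoint: linear interpolation; highest concentration if not reached. GI50 = concentration required for 50% inhibition of growth.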 Activity calls are given as the source filed them. No stated cut-off is given here; in the data, active = GI50 up to about 1.1 µM and inactive = higher.

Key:
Assay in all cases: NCI anticancer screen, dose series, 48 h
MOLT-4 = system: MOLT-4
NCI-H226 = system: NCI-H226
SF-268 = system: SF-268
TK-10 = system: TK-10
NCI-H23 = system: NCI-H23
NCI-H522 = system: NCI-H522
LOX IMVI = system: LOX IMVI
Malme-3M = system: Malme-3M
UACC-257 = system: UACC-257
SF-295 = system: SF-295
HOP-92 = system: HOP-92
U-251 = system: U-251
MDA-N = system: MDA-N
OVCAR-5 = system: OVCAR-5
ACHN = system: ACHN
MDA-MB-435 = system: MDA-MB-435
COLO 205 = system: COLO 205
CAKI-1 = system: CAKI-1
SF-539 = system: SF-539
SR = system: SR

SMILES | GI50 (MOLT-4) | GI50 (NCI-H226) | GI50 (SF-268) | GI50 (TK-10) | GI50 (NCI-H23) | GI50 (NCI-H522) | GI50 (LOX IMVI) | GI50 (Malme-3M) | GI50 (UACC-257) | GI50 (SF-295) | GI50 (HOP-92) | GI50 (U-251) | GI50 (MDA-N) | GI50 (OVCAR-5) | GI50 (ACHN) | GI50 (MDA-MB-435) | GI50 (COLO 205) | GI50 (CAKI-1) | GI50 (SF-539) | GI50 (SR)
O=C(CCCc1ccccn1)c1ccccc1 | > 100 µM (inactive) | > 100 µM (inactive) | > 100 µM (inactive) | > 100 µM (inactive) | > 100 µM (inactive) | > 100 µM (inactive) | > 100 µM (inactive) | > 100 µM (inactive) | > 100 µM (inactive) | > 100 µM (inactive) | > 100 µM (inactive) | > 100 µM (inactive) | > 100 µM (inactive) | > 100 µM (inactive) | > 100 µM (inactive) | > 100 µM (inactive) | > 100 µM (inactive) | > 100 µM (inactive) | > 100 µM (inactive) | –
N#CCCC1(CCC#N)CCCCCCC(CCC#N)(CCC#N)C(=O)C1=O | – | – | > 100 µM (inactive) | > 100 µM (inactive) | > 100 µM (inactive) | > 100 µM (inactive) | > 100 µM (inactive) | > 100 µM (inactive) | > 100 µM (inactive) | > 100 µM (inactive) | > 100 µM (inactive) | > 100 µM (inactive) | > 100 µM (inactive) | > 100 µM (inactive) | > 100 µM (inactive) | > 100 µM (inactive) | 36.8 µM (inactive) | > 100 µM (inactive) | > 100 µM (inactive) | > 100 µM (inactive)
O=C(Cn1c(-c2ccccc2)cc2ccccc21)N1CCOCC1 | > 100 µM (inactive) | > 100 µM (inactive) | 34.4 µM (inactive) | > 100 µM (inactive) | > 100 µM (inactive) | > 100 µM (inactive) | > 100 µM (inactive) | > 100 µM (inactive) | > 100 µM (inactive) | > 100 µM (inactive) | > 100 µM (inactive) | 45 µM (inactive) | > 100 µM (inactive) | > 100 µM (inactive) | > 100 µM (inactive) | > 100 µM (inactive) | > 100 µM (inactive) | > 100 µM (inactive) | 67.1 µM (inactive) | –
C/C=C(/C)c1cnc(CC(C)C)c(=O)[nH]1 | > 100 µM (inactive) | – | > 100 µM (inactive) | > 100 µM (inactive) | > 100 µM (inactive) | – | > 100 µM (inactive) | – | > 100 µM (inactive) | > 100 µM (inactive) | > 100 µM (inactive) | > 100 µM (inactive) | > 100 µM (inactive) | > 100 µM (inactive) | > 100 µM (inactive) | > 100 µM (inactive) | > 100 µM (inactive) | > 100 µM (inactive) | – | > 100 µM (inactive)
CNc1nc(N)c(N=O)c(Nc2ccc(Br)cc2)n1 | 68.4 µM (inactive) | – | 72.9 µM (inactive) | > 100 µM (inactive) | > 100 µM (inactive) | > 100 µM (inactive) | > 100 µM (inactive) | > 100 µM (inactive) | > 100 µM (inactive) | > 100 µM (inactive) | – | 61.8 µM (inactive) | > 100 µM (inactive) | > 100 µM (inactive) | 53.2 µM (inactive) | > 100 µM (inactive) | > 100 µM (inactive) | – | > 100 µM (inactive) | > 100 µM (inactive)
O=C1c2cc([N+](=O)[O-])cc3cc([N+](=O)[O-])cc(c23)C(=O)N1CCCNCCNCCCN1C(=O)c2cc([N+](=O)[O-])cc3cc([N+](=O)[O-])cc(c23)C1=O | < 0.01 µM (active) | 0.0641 µM (active) | 0.0222 µM (active) | 1.19 µM (inactive) | 0.0931 µM (active) | 0.0551 µM (active) | 0.0142 µM (active) | 0.223 µM (active) | 0.49 µM (active) | 0.0462 µM (active) | 0.337 µM (active) | 0.0395 µM (active) | 0.752 µM (active) | 0.268 µM (active) | 0.0296 µM (active) | 0.975 µM (active) | 0.041 µM (active) | 0.182 µM (active) | 0.0533 µM (active) | –
NCCCCN(CCCN)Cc1ccc2ccccc2c1 | 34.8 µM (inactive) | 21.5 µM (inactive) | 12.6 µM (inactive) | > 100 µM (inactive) | 25.3 µM (inactive) | 13.5 µM (inactive) | 29.2 µM (inactive) | 51.8 µM (inactive) | > 100 µM (inactive) | 44 µM (inactive) | 29 µM (inactive) | 59 µM (inactive) | 21.3 µM (inactive) | 28.8 µM (inactive) | 22.8 µM (inactive) | > 100 µM (inactive) | 35.2 µM (inactive) | 13.8 µM (inactive) | 30.8 µM (inactive) | –
O=C1c2ccccc2C2(c3ccc(Cl)cc3)NCc3ccccc3CN12 (stereo unspecified) | 24.8 µM (inactive) | – | 35.1 µM (inactive) | 31.3 µM (inactive) | 17.7 µM (inactive) | – | 16.2 µM (inactive) | – | 33 µM (inactive) | 18.3 µM (inactive) | 19.7 µM (inactive) | 28.6 µM (inactive) | 56 µM (inactive) | 21.7 µM (inactive) | 21.6 µM (inactive) | 26.7 µM (inactive) | 15.1 µM (inactive) | 63 µM (inactive) | 16.3 µM (inactive) | 24.7 µM (inactive)
Clc1cccc(Cl)c1C1SCC2=Nc3ccccc3CN21 (stereo unspecified) | 31.3 µM (inactive) | – | 39.9 µM (inactive) | > 100 µM (inactive) | 14.6 µM (inactive) | – | 19.1 µM (inactive) | – | 34.7 µM (inactive) | 13.2 µM (inactive) | 40.7 µM (inactive) | 33.2 µM (inactive) | 36.8 µM (inactive) | 41.5 µM (inactive) | – | 27.2 µM (inactive) | 14.1 µM (inactive) | 60.3 µM (inactive) | 16.2 µM (inactive) | 34.1 µM (inactive)
Cc1c(Cl)cccc1/N=N/C(=O)NNc1cccc(Cl)c1C | 13.3 µM (inactive) | 15.8 µM (inactive) | 16.9 µM (inactive) | 15.8 µM (inactive) | 16.7 µM (inactive) | 23.1 µM (inactive) | 21.3 µM (inactive) | 16.1 µM (inactive) | 23.1 µM (inactive) | – | – | 16.2 µM (inactive) | 17.2 µM (inactive) | 14.1 µM (inactive) | 20.1 µM (inactive) | 18.2 µM (inactive) | – | – | – | 21.3 µM (inactive)
CCNCC(O)c1ccc(N)c([N+](=O)[O-])c1 (stereo unspecified) | > 100 µM (inactive) | > 100 µM (inactive) | > 100 µM (inactive) | > 100 µM (inactive) | > 100 µM (inactive) | > 100 µM (inactive) | > 100 µM (inactive) | – | > 100 µM (inactive) | > 100 µM (inactive) | – | > 100 µM (inactive) | > 100 µM (inactive) | > 100 µM (inactive) | > 100 µM (inactive) | > 100 µM (inactive) | > 100 µM (inactive) | > 100 µM (inactive) | > 100 µM (inactive) | > 100 µM (inactive)
N=C(N)NC(CC(=O)O)c1ccccc1 (stereo unspecified) | – | – | > 100 µM (inactive) | > 100 µM (inactive) | > 100 µM (inactive) | > 100 µM (inactive) | > 100 µM (inactive) | > 100 µM (inactive) | > 100 µM (inactive) | > 100 µM (inactive) | > 100 µM (inactive) | > 100 µM (inactive) | > 100 µM (inactive) | > 100 µM (inactive) | > 100 µM (inactive) | > 100 µM (inactive) | > 100 µM (inactive) | > 100 µM (inactive) | > 100 µM (inactive) | > 100 µM (inactive)
